Data: patent publication US10542757B2, “Compositions comprising a biological control agent and an insecticide” (priority 2012, dated 2020)

Legend:
Type in all cases: in vivo
[1] = system: green peach aphid (Myzus persicae); test: Myzus persicae spray test (MYZUPE); conditions: mortality, Chinese cabbage leaf-disks sprayed
Experimental: (§1) For all examples efficiencies of the compositions comprising at least one BCA and at least one specific insecticide has been determined by the “Colby-formula”: The expected efficacy of a given combination of two compounds is calculated as follows (see Colby, S. R., “Calculating Synergistic and antagonistic Responses of Herbicide Combinations”, Weeds 15, pp. 20-22, 1967):
(§2) • X is the efficacy expressed in % mortality of the untreated control for test compound A at a concentration of m ppm respectively m g/ha, • Y is the efficacy expressed in % mortality of the untreated control for test compound B at a concentration of n ppm respectively n g/ha, • E is the efficacy expressed in % mortality of the untreated control using the mixture of A and B at m and n ppm respectively m and n g/ha, then
(§3) If the observed insecticidal efficacy of the combination is higher than the one calculated as “E”, then the combination of the two compounds is more than additive, i.e., there is a synergistic effect.
(§4) To produce a suitable preparation of active compound, 1 part by weight of active compound is mixed with the stated amount of solvent and emulsifier, and the concentrate is diluted with emulsifier-containing water to the desired concentration. To produce a suitable preparation of a spore suspension the spores are diluted with emulsifier-containing water to the desired concentration.
Chinese cabbage (Brassica pekinensis) leaf-disks infected with all instars of the green peach aphid (Myzus persicae), are sprayed with a preparation of the active ingredient of the desired concentration.
After the specified period of time, mortality in % is determined. 100% means all aphids have been killed; 0% means none of the aphids have been killed. The mortality values determined thus are recalculated using the Colby-formula (see above).

[2] = system: mustard beetle larvae (Phaedon cochleariae); test: Phaedon cochleariae spray test; conditions: mortality, Chinese cabbage leaf-disks sprayed
Experimental: as §1, §2, §3, §4
Chinese cabbage (Brassica pekinensis) leaf-disks are sprayed with a preparation of the active ingredient of the desired concentration. Once dry, the leaf disks are infested with mustard beetle larvae (Phaedon cochleariae).
After the specified period of time, mortality in % is determined. 100% means all beetle larvae have been killed and 0% means none of the beetle larvae have been killed. The mortality values determined thus are recalculated using the Colby-formula (see above).

[3] = system: larvae of the diamondback moth (Plutella xylostella); test: Plutella xylostella spray test; conditions: mortality, cabbage leaves sprayed, 0.05 ppm
Experimental: as §1, §2, §3
(§5) To produce a suitable preparation of active compound, 1 part by weight of active compound is mixed with the stated amount of solvent and emulsifier, and the concentrate is diluted with emulsifier-containing water to the desired concentration. […]
After the specified period of time, the mortality in % is determined. […] The mortality values determined thus are recalculated using the Colby-formula (see above).

[4] = system: fall armyworm larvae (Spodoptera frugiperda); test: Spodoptera frugiperda spray test; conditions: mortality, maize leaf sections sprayed, 0.8 g ai/ha
Experimental: as §1, §2, §3
To produce a suitable preparation of the active compound, 1 part by weight of active compound is mixed with the stated amount of solvent and emulsifier, and the concentrate is diluted with emulsifier-containing water to the desired concentration. […]
(§6) After the specified period of time, mortality in % is determined. […] The mortality values determined thus are recalculated using the Colby-formula (see above).

[5] = system: caterpillars of the beet army worm (Spodoptera exigua); test: Spodoptera exigua spray test; conditions: mortality, cotton leaves sprayed, 0.1 ppm
Experimental: as §1, §2, §3, §5, §6

[6] = system: two spotted spidermite (Tetranychus urticae); test: Tetranychus urticae spray test, OP-resistant; conditions: mortality, French beans sprayed, 20 g ai/ha
Experimental: as §1, §2, §3, §5, §6

SMILES	Efficacy in % after 6d ([1]; 4 g/ha) [%]	Efficacy in % after 6d ([2]; 0.16 g ai/ha) [%]	Efficacy in % after 6d ([2]; 0.8 g ai/ha) [%]	Efficacy in % after 3d [3] [%]	Efficacy in % after 6d ([1]; 100 g/ha) [%]	Efficacy in % after 2d ([2]; 100 g ai/ha, 2 d) [%]	Efficacy in % after 2d ([4]; 2 d) [%]	Efficacy in % after 6d ([4]; 6 d) [%]	Efficacy in % after 3d [5] [%]	Efficacy in % after 6d ([1]; 0.16 g/ha) [%]	Efficacy in % after 6d [6] [%]
CNC(=O)c1cc(Cl)cc(C)c1NC(=O)c1cc(Br)nn1-c1ncccc1Cl [Chlorantraniliprole (I231), Chlorantraniliprole]	0	0	0	30							
Cc1cc(C(F)(C(F)(F)F)C(F)(F)F)ccc1NC(=O)c1cccc(I)c1C(=O)NC(C)(C)CS(C)(=O)=O [Flubendiamide (I233), Flubendiamide]					0	0	0	0	30		
CNC(=O)c1cc(C#N)cc(C)c1NC(=O)c1cc(Br)nn1-c1ncccc1Cl [Cyantraniliprole (I232), Cyantraniliprole]			33							0	0
